The values that follow come from ChEMBL document CHEMBL5113492, “Design, synthesis, and biological evalution of bifunctional inhibitors against Hsp90-HDAC6 interplay” (Eur J Med Chem, 2022).

For one assay, the system named is NCI-H1975. The assay can be described thus: Antiproliferative activity against human NCI-H1975 cells assessed as growth inhibition incubated upto 72 hrs by CellTiter96 Aqueous One Solution Cell Proliferation assay. It counts as functional.
Assay [1] deals with Heat shock protein HSP 90-alpha (Homo sapiens, UniProt P07900). The assay can be described thus: Inhibition of His-tagged N-terminal recombinant HSP90alpha (unknown origin) expressed in Escherichia coli BL21 (DE3) incubated for 4 hrs by fluorescence polarization based microplate reader assay. Background: Polarisation of emitted light reports the rotation of a fluorescent probe.

For assay [2], the target named is T1, Protein deacetylase HDAC6 (Homo sapiens) (UniProt Q9UBN7).
T1 sequence (whole entry): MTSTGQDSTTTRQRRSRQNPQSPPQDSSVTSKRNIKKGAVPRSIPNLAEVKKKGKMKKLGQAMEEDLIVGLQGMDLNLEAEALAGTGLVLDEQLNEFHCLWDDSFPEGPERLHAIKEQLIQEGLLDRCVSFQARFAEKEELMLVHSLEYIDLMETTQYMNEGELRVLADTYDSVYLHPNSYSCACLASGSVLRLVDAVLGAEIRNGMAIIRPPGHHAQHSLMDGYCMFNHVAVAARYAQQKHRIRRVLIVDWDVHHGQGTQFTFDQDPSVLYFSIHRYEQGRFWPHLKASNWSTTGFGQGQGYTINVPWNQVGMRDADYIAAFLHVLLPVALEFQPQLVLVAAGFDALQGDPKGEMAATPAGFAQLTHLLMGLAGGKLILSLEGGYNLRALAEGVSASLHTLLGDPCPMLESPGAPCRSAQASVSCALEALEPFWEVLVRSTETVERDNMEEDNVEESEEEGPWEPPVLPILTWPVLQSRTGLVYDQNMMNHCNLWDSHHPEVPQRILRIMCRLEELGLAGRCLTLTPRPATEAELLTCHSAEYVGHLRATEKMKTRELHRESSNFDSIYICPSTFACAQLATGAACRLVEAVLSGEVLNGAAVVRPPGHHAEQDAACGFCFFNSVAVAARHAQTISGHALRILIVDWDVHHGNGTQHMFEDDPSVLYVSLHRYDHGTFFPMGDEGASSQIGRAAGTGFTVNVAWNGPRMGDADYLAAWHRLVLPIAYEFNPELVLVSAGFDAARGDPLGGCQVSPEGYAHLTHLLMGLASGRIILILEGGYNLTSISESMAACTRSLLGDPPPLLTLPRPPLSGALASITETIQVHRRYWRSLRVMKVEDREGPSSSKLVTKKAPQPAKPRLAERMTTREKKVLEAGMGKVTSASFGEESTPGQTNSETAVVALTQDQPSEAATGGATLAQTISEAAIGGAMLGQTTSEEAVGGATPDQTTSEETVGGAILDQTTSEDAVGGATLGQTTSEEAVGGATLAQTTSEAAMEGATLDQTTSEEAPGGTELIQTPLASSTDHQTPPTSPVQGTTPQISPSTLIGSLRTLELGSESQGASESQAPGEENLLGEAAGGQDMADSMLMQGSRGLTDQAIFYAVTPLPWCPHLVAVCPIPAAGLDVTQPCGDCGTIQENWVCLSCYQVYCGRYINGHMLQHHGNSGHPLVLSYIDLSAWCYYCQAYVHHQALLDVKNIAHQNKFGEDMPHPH
Kind of assay: Inhibition of HDAC6 in human NCI-H1975 cells assessed as increase in acetylation of alpha tubulin at 1 uM incubated for 24 hrs by western blot analysis. The format is cell-based. A general note: In western blotting, separated proteins are transferred to a membrane and probed.

The target of assay [3] is T2, Heat shock protein HSP90 (Homo sapiens) (UniProt P07900+P08238). The assay can be described thus: Inhibition of HSP90 in human NCI-H1975 cells assessed as downregulation of EGFR expression at 2 uM incubated for 24 hrs by western blot analysis. The format is cell-based.
In assay [4] the target is T2, Heat shock protein HSP90 (Homo sapiens). Kind of assay: Inhibition of HSP90 in human NCI-H1975 cells assessed as downregulation of Akt expression at 2 uM incubated for 24 hrs by western blot analysis. It counts as cell-based.
Assay [5] deals with T1, Protein deacetylase HDAC6 (Homo sapiens). Kind of assay: Inhibition of HDAC6 in human NCI-H1975 cells assessed as increase in acetylation of HSP90-Lys 294 residue at 2 uM incubated for 24 hrs by western blot analysis. It counts as cell-based.
The target of assay [6] is T2, Heat shock protein HSP90 (Homo sapiens). The assay can be described thus: Inhibition of HSP90 in human NCI-H1975 cells assessed as downregulation of Met expression at 2 uM incubated for 24 hrs by western blot analysis. It counts as cell-based.
The target is the same in assay [7]. The assay can be described thus: Inhibition of HSP90 in human NCI-H1975 cells assessed as downregulation of Her2 expression at 2 uM incubated for 24 hrs by western blot analysis. The format is cell-based.
The target is the same in assay [8]. Kind of assay: Inhibition of HSP90 in human NCI-H1975 cells assessed as upregulation of HSP70 expression at 2 uM incubated for 24 hrs by western blot analysis. The format is cell-based.

Each structure is given as a SMILES string. pIC50: −log10 of the molar value. Active and inactive are the calls of the source. No cut-off for these calls is given here.

Consider `CN(Cc1ccc(C(=O)NO)cc1)C(=O)c1ccccc1`, for which, in the assay with NCI-H1975, the GI50 came out at 8.2 µM. In addition, in assay [1], the pIC50 was below 6.00.
As for `CCCCN(Cc1ccc(C(=O)NO)cc1)C(=O)c1cc(C(C)C)c(O)cc1O`, the GI50 in the assay with NCI-H1975 stood at 23.6 µM. Moreover, the pIC50 in assay [1] was 6.43.
Consider `CC(C)c1cc(C(=O)N(C)Cc2ccc(C(=O)O)cc2)c(O)cc1O`, for which the GI50 in the assay with NCI-H1975 was 30 µM.
For `CCN(Cc1ccc(C(=O)NO)cc1)C(=O)c1cc(C(C)C)c(O)cc1O`, the GI50 with NCI-H1975 worked out at 7 µM. The pIC50 in assay [1] is 6.66.
In the case of `COC1=C2C[C@@H](C)C[C@H](OC)[C@H](O)[C@@H](C)/C=C(\C)[C@H](OC(N)=O)[C@@H](OC)/C=C\C=C(/C)C(=O)NC(=CC1=O)C2=O`, the inhibition entry in [2] was “Active”.
For the compound `CCN(Cc1ccc(C(=O)NO)cc1)C(=O)c1cc(Cl)c(O)cc1O`, the GI50 in the assay with NCI-H1975 was 13.2 µM. The pIC50 in [1] was 6.16.
`COC(=O)c1ccc(CN(C)C(=O)c2cc(C(C)C)c(O)cc2O)cc1`: the GI50 in the assay with NCI-H1975 is 3.5 µM. Also, the inhibition result in [3], in [4], in assay [5], in assay [6], in assay [7] and in [8] was “Active” each time.
As to `CCCN(Cc1ccc(C(=O)NO)cc1)C(=O)c1cc(C(C)C)c(O)cc1O`, the GI50 with NCI-H1975 worked out at 23.7 µM. For the same compound, the pIC50 in [1] is 6.19.
For `CN(Cc1ccc(C(=O)NO)cc1)C(=O)c1cc(Cl)c(O)cc1O`, in that order: 68.8 µM and 6.22.
Regarding `CCCN(Cc1ccc(C(=O)NO)cc1)C(=O)c1cc(Cl)c(O)cc1O`, the GI50 in the assay with NCI-H1975 came to 73.6 µM. Further, in assay [1], the pIC50 was below 6.00.
For the compound `CCCCN(Cc1ccc(C(=O)NO)cc1)C(=O)c1cc(Cl)c(O)cc1O`, the GI50 in the assay with NCI-H1975 is 66.4 µM. Further, the pIC50 in assay [1] is 6.20.

A word on the GI50: it is the concentration that inhibits growth by half. By pIC50 is commonly meant the negative decadic logarithm of the IC50, by convention in mol/L.
